Data as given in patent US8697738B2, “Alpha-aminoamide derivatives useful in the treatment of addictive disorders” (Newron Pharmaceuticals S.p.A., priority 2004, dated 2014).
“Also recorded” adds a separate entry of the source.

Experiments:
[1] = tested on: cocaine-induced hyperactivity; test: Cocaine interaction study in mice (cocaine-induced locomotion increase); assay type: in vivo, Swiss-Webster Mice; conditions: 100 mg/kg ip, cocaine 20 mg/kg ip
From the text: Typically, psychostimulant addictive drugs as amphetamine and cocaine induce an increase in locomotor activity in rodents and primate. Some compounds with anti-addictive potential properties can prevent the increase in locomotor activity induced by psychostimulant drugs. (Katz J L, Kopajtic T A, Myers K A, Mitkus R J, Chider M, Behavioral effects of cocaine: interactions with D1 dopaminergic antagonists and agonists in mice and squirrel monkeys. J Pharmacol Exp Ther. 1999 October; 291(1):265-79).
The effect of test compounds is evaluated in a mice model of cocaine-induced locomotion increase.
Subjects: Swiss-Webster Mice, Male
Apparatus: Automated Photocell Chambers
Drugs: Cocaine 20 mg/kg is administered ip, test compounds dissolved in vehicle are administered ip at different doses (10-100 mg/kg) right before cocaine.
Behavioral test; Animals (8 per experimental group) received ip injection of cocaine (20 mg/kg) or saline and either the test compounds (10-100 mg/kg ip) or their vehicle and locomotor activity is recorded for 1 hour. […]
Maximal effect: The 30 min time period in which cocaine (20 mg/kg) produces the maximal activity is used to determine test compound effect. […] The AD50 (dose that attenuates cocaine-induced stimulation by 50%) is determined from the linear regression analysis.

[2] = tested on: patients with idiopathic RLS; test: Open label RLS study, 2 week administration in 10 patients with idiopathic RLS; assay type: in vivo, human
Description: In an open label study conducted on 10 patients with idiopathic RLS, 2 week administration of (S)-(+)-2-[4-(3-Fluorobenzyloxy)-benzylamino]-propanamide 100 mg/die resulted efficacious in improving RLS symptoms. Patients were included in the study if they fulfilled the minimal diagnostic criteria according to the International RLS Study Group. Patients' symptoms had to interfere with sleep onset or maintenance for at least 6 months and at least 15 nights during the last 12 weeks, and they should have IRLS 10(International Restless Legs Syndrome) score equal to or greater than 15 at baseline assessment. Physical examination, biochemical and haematological laboratory tests and electrocardiogram were performed to ensure that selection criteria were fulfilled. Polysomnography was performed for 2 nights at baseline and 2 nights at the end of treatment, in order to verify the effects of (S)-(+)-2-[4-(3-Fluorobenzyloxy)benzylamino]propanamide on sleep. Efficacy was measured through the following evaluation scales: International Restless Legs Syndrome 10 (IRLS 10), Restless Legs Syndrome Quality of Life (RLS QoL), Work Productivity and Activity Impairment Questionnaire (WPAI RLS) and Clinical Global Impression (CGI part I and CGI part II).
Ten out of 10 patients enrolled were considered eligible for the efficacy analysis: ail of them completed the planned period of treatment of 14+3 days. […] As to the main disease, it was considered severe in 70% of patients according to CGI criteria and confirmed by IRLS-10 score, with an impact on daily activity, that could be quantified (according to WPAI-RLS, and RLS-QoLQ results) in about ⅓ of the usual performances.

[3] = tested on: cocaine detoxification; conditions: rats and human; cited from earlier work
[4] = tested on: smoking cessation; conditions: 200 mg/day; from 17 to 30%; cited from earlier work
[5] = tested on: alcohol dependence; conditions: clinical study; cited from earlier work
[6] = 100 mg/die, 2 weeks, 10 patients

C[C@H](NCc1ccc(OCc2cccc(F)c2)cc1)C(N)=O [(S)-(+)-2-[4-(3-Fluorobenzyloxy)-benzylamino]propanamide]
effect on cocaine-induced hyperactivity (total locomotor activity) [1]: significantly decreased
improvement of RLS symptoms ([2]; 100 mg/die, 2 week administration, 10 patients): efficacious; also recorded: significant improvement
adverse events [2, 6]: no adverse events
tolerability [2, 6]: well tolerated
CGI part II changes from previous visit: Minimally Improved ([2]; Final visit): 5 (50) N (%)
CGI part II changes from previous visit: Much Improved ([2]; Final visit): 2 (20) N (%)
CGI part II changes from previous visit: No change ([2]; Final visit): 1 (10) N (%)
CGI part II changes from previous visit: Very Much Improved ([2]; Final visit): 2 (20) N (%)
IRLS 10 Score, Impact, Mean ([2]; Final visit (baseline 4.20)): 3.00
IRLS 10 Score, Associate Features, mean ([2]; Final visit (baseline 5.10)): 4.30
IRLS 10 Score, Severity, mean ([2]; Final visit (baseline 7.00)): 6.00
IRLS 10 Score, Diagnostic Features, mean ([2]; Final visit (baseline 11.20)): 8.50
IRLS 10 Score, Total Score, mean ([2]; Final visit (baseline 27.50)): 21.80
IRLS 10 Score, Diagnostic Features, changes ([2]; Final vs Baseline, p 0.002): −2.70
IRLS 10 Score, Total Score, changes ([2]; Final vs Baseline, p 0.002): −5.70
IRLS 10 Score, Impact, changes ([2]; Final vs Baseline, p 0.003): −1.20
IRLS 10 Score, Severity, changes ([2]; Final vs Baseline, p 0.063): −1.00
IRLS 10 Score, Associate Features, changes ([2]; Final vs Baseline, p 0.070): −0.80
CGI part I: patients with stable disease ([2]; after 2 weeks): 40%
CGI part II: patients with improvement of any grading ([2]; after 2 weeks): 90%
CGI part II: patients with no changes ([2]; after 2 weeks): 10%
WPAI-RLS item 6 impairment of daily activities ([2]; after 2 weeks (from 34% at baseline), p=0.005, FIG. 3): 22%
Polysomnographic registration: PLM (Wake+Sleep) Index ([2]; after 2 weeks versus baseline, FIG. 4): statistically significant improvement versus baseline
Polysomnographic registration: PLM Sleep Index ([2]; after 2 weeks versus baseline, FIG. 5): statistically significant improvement versus baseline
Polysomnographic registration: PLM Wake Index ([2]; after 2 weeks versus baseline, FIG. 6): statistically significant improvement versus baseline
RLS-QoLQ total score ([2]; after 2 weeks vs baseline, p=0.002, FIG. 2): significant decrease
CGI part I: patients with improvement in disease situation ([2]; after 2 weeks, P=0,031): 60%
IRLS-10 scale total score, result in words ([2]; after 2 weeks, p=0.002): statistically significant improvement
safety profile ([2]; conclusion of the trial): good safety profile

C#CCN(C)[C@H](C)Cc1ccccc1 [Selegeline, selegiline, reference compound]
effect on cocaine-induced hyperactivity (total locomotor activity) [1]: did not reverse
anti-reinforcing effect during cocaine detoxification [3]: moderate anti-reinforcing effect

NCCNC(=O)c1ccc(Cl)cn1 [lazabemide]
percentage of smoking cessation [4]: 30%

CC1(C)O[C@@H]2[C@@H](CO[C@@]3(COS(N)(=O)=O)OC(C)(C)O[C@@H]23)O1 [topiramate]
efficacy in the treatment of alcohol dependence [5]: efficacious
